Laboratory results from patent US9457044B2, “Methods and compositions for wound healing” (CoDa Therapeutics, Inc., priority 2006, dated 2016).

Experiments:
MPO-positive neutrophils = test: Neutrophil recruitment into wound site (anti-MPO staining); type: in vivo, mice; conditions: day 1 and 2, versus control
Method: (§1) Male, 8 week old, ICR mice were used in the following experiments. All the mice were kept under specific pathogen-free conditions in an environmentally controlled clean room at University College London and all the experiments were carried out under UK Home Office regulations. Mice were anaesthetized by halothane inhalation. Four full-thickness excisional wounds of 6 mm diameter were made on the shaved back on either side of the dorsal midline with a 6 mm biopsy punch (Kai Industries). To each pair of wounds a single topical application of 50 μl of 1 μM Cx43 as ODN (SEQ. ID No. 2) (Sigma-Genosys) in 30% Pluronic F-127 gel (Sigma-Aldrich), chilled on ice, was made to one wound, and an identical application of 1 μM sense control sODNs was made to the other. […] R. and Becker, D. L. (2003). Targeting connexin 43 expression accelerates the rate of wound repair. Curr Biol 13, 1697-703). Each wound region was digitally photographed at the indicated time intervals, and the areas of the wounds were calculated. All wound areas were expressed as percentages of the initial wound areas. […]
(§2) A treatment-blinded observer counted MPO-positive neutrophils and F4/80-positive macrophages in the wound bed (defined as the area surrounded by unwounded skin, fascia, regenerated epidermis, and eschar) in 3 random high-power fields of 0.332 mm^2. […]

fibroblast like cells = test: Fibroblast-like cell count at wound margin (rhodamine phalloidin/DAPI); type: in vivo, mice; conditions: 2 day wounds; P<0.01
Method: as §1, §2

granulation tissue = test: Granulation tissue area (H&E); type: in vivo, mice
Method: as §1, with “areas. In some series of experiments, wounds and their surrounding area, including the scab and epithelial margins, were harvested with an 8 mm biopsy punch (Kai Industries) at the indicated time intervals after mice were killed with an overdose of chloroform. A minimum of eight mice were used for each time point examined.” for “areas.”

apoptotic cells = test: TUNEL staining of granulation tissue; type: in vivo, mice; conditions: 5, 7 and 10 days after wounding
Method: as §1
Wound tissues were fixed in 4% formaldehyde buffered with PBS, and embedded in paraffin and sectioned. […] TUNEL stained section were imaged and positive cells were counted in the granulation tissue in three random fields, in the two sides and center of each wound (each field was 0.332 mm2).

hydroxyproline = test: Hydroxyproline analysis of collagen content of wound area; set-up: species or system mice; conditions: mouse, in vivo
Method: as §1, with “Targeting connexin 43 expression accelerates the rate of wound repair. Curr Biol 13, 1697-703).” left out
The collagen content of the wound area was assessed by determining the amount of hydroxyproline (HP), a major component of collagen. […] Concentrations of protein were measured using a BCA™ Protein Assay Kit (PIERCE Biotechnology Inc.), and the amounts of HP were determined with Sircol™ Soluble Collagen Assay Kit (Biocolor Ltd.). The data were expressed as amounts of HP/total protein (ng/μg) for each sample.

collagen type 1α1 = test: Real-Time PCR of Col1α1 at wound sites; set-up: species or system mice; conditions: mouse, in vivo
Method: as §1
Gene specific primers and probe were obtained as TaqMan® Gene Expression Assays (Applied Biosystems) for Cx43, Ccl2, Co1α1, TNFα and TGFβ1. […] Each sample was analyzed in duplicate. […]

IGFBP-2 = test: Growth factor/cytokine antibody array of chimera: IGFBP-2; type: cell-based, human; conditions: after two weeks in culture
Method: Cell denuded pig stroma chimeras were cultured for two weeks and then assessed using a growth factor/cytokine antibody array (measures protein levels of 120 different growth factors/cytokines.
After two weeks in culture the chimeras were cut in half: one half for histological analysis, and the other for growth factor and cytokine array analysis. For growth factor and cytokine analysis the central stromal region (with fully recovered human cell epithelium) and partially repopulated stroma (human keratocytes) was removed and homogenised separately from the human limbal rim which contains stem cell populations. The homogenates were run on a growth factor/cytokine array (FIG. 15) and analysis of growth factor levels performed using densitometry analysis of the array membranes.

skin wounds = conditions: Qiu 2003; Coutinho 2005; cited from earlier work

GTAATTGCGGCAGGAGGAATTGTTTCTGTC (antisense GTAATTGCGGCAGGAGGAATTGTTTCTGTC; in Pluronic F-127 gel, further chemistry not given here) [Cx43 asODN]
neutrophil numbers at wound site (MPO-positive neutrophils): significantly reduced
number of elongated fibroblast like cells at the wound margin (mean per field) (fibroblast like cells): 99.2
granulation tissue area versus untreated tissue (granulation tissue; day 5, difference not significant): slightly smaller
granulation tissue area versus control sODN treated wounds (granulation tissue; days 7, 10 and 14 after wounding): significantly (*P<0.05; **P<0.01) smaller
numbers of TUNEL positive cells, control versus treated (apoptotic cells): no significant differences
hydroxyproline in treated wounds (hydroxyproline): increased
collagen type 1α1 in treated wounds (collagen type 1α1): increased
level of IGFBP-2 in limbal rim and stroma compared with untreated controls (IGFBP-2): higher levels
healing of skin wound and burn injury sites versus control sODN (skin wounds): significantly accelerated healing
